Experimental data reported in PubChem BioAssay AID256 (DTP/NCI, 2004).
Values joined by “and” are separate entries in the source; they are usually repeats but may differ in a detail not shown here. Equal entries are not always repeated. Inconclusive results and toxic doses are left out. The calls were made as follows: active = survival T/C of 150% or more; inactive = T/C below 125% in these data.

Tested on: CD2F1 mice, L1210 leukemia ip, survival T/C
Experiment: NCI In Vivo Anticancer Drug Screen. Data for tumor model L1210 Leukemia (intraperitoneal) in CD2F1 (CDF1) mice
Conditions: endpoint: mean survival time, higher = longer survival
Outline: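 Mice carrying a transplanted tumor received test compound or vehicle alone. The value is the measurement in the treated group divided by that in the vehicle-treated control group.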

[1] = dose: 100.0 mg/kg/injection, schedule: Q04DX003 (ip), vehicle: saline with Tween-80
[2] = dose: 200.0 mg/kg/injection, schedule: Q04DX003 (ip), vehicle: saline with Tween-80
[3] = dose: 400.0 mg/kg/injection, schedule: Q04DX003 (ip), vehicle: saline with Tween-80
[4] = dose: 100.0 mg/kg/injection, schedule: Q01DX001 (ip), vehicle: saline
[5] = dose: 100.0 mg/kg/injection, schedule: Q01DX009 (ip), vehicle: saline with Tween-80
[6] = dose: 200.0 mg/kg/injection, schedule: Q01DX001 (ip), vehicle: saline
[7] = dose: 200.0 mg/kg/injection, schedule: Q01DX009 (ip), vehicle: saline with Tween-80
[8] = dose: 400.0 mg/kg/injection, schedule: Q01DX001 (ip), vehicle: saline
[9] = dose: 400.0 mg/kg/injection, schedule: Q01DX009 (ip), vehicle: saline with Tween-80
[10] = dose: 100.0 mg/kg/injection, schedule: Q04DX002 (ip), vehicle: saline with Tween-80
[11] = dose: 200.0 mg/kg/injection, schedule: Q04DX002 (ip), vehicle: saline with Tween-80
[12] = dose: 100.0 mg/kg/injection, schedule: Q01DX001 (ip), vehicle: saline with Tween-80
[13] = dose: 200.0 mg/kg/injection, schedule: Q01DX001 (ip), vehicle: saline with Tween-80
[14] = dose: 400.0 mg/kg/injection, schedule: Q01DX001 (ip), vehicle: saline with Tween-80

Measured: T/C

N=c1c2ncn(C3OC(CO)C(O)C3O)c2ncn1N (stereo not given)
inactive: dose: 50.0 mg/kg/injection, schedule: Q01DX005 (ip), vehicle: water 101 % of control | dose: 100.0 mg/kg/injection, schedule: Q01DX005 (ip), vehicle: water 101 % of control | dose: 200.0 mg/kg/injection, schedule: Q01DX005 (ip), vehicle: water 114 % of control

CCC(C)(S)C(NC(C)=O)C(=O)O (stereo not given)
inactive: [1] 98 % of control | [2] 101 % of control | [3] 104 % of control

Cc1cc2nc(CN)[nH]c2cc1C
inactive: dose: 100.0 mg/kg/injection, schedule: Q04DX003 (ip), vehicle: saline 98 % of control | dose: 200.0 mg/kg/injection, schedule: Q04DX003 (ip), vehicle: saline 95 % of control

ClC(Cl)c1ccccc1C(Cl)(Cl)Cl
inactive: [4] 104 % of control | [5] 99 % of control | [1] 94 % of control | [6] 98 % of control | [7] 101 % of control | [2] 94 % of control | [8] 98 % of control | [9] 94 % of control | [3] 88 % of control

O=C1NCCC/C1=N/Nc1ccccc1
inactive: dose: 50.0 mg/kg/injection, schedule: Q04DX002 (ip), vehicle: saline with Tween-80 100 % of control | [5] 96 % of control | [10] 108 % of control | [7] 96 % of control | [11] 112 % of control | [9] 91 % of control

COc1ccc(C(O)C(C)c2ccc([N+](=O)[O-])cc2)cc1 (stereo not given)
inactive: [12] 106 % of control | [5] 105 % of control | [13] 93 % of control | [7] 103 % of control | [14] 98 % of control | [9] 94 % of control

Cc1nc(N)[nH]c(=O)c1CCS
inactive: [4] 97 % of control | [6] 100 % of control

CCN1/C(=C/C(C)=C/c2sc3ccc4ccccc4c3[n+]2CC)Sc2ccc3ccccc3c21
inactive: dose: 0.02 mg/kg/injection, schedule: Q01DX009 (ip), vehicle: Klucel (hydroxypropylcellulose) (HPC) 101 % of control | dose: 0.03 mg/kg/injection, schedule: Q01DX009 (ip), vehicle: Klucel (hydroxypropylcellulose) (HPC) 100 % of control | dose: 0.05 mg/kg/injection, schedule: Q01DX009 (ip), vehicle: Klucel (hydroxypropylcellulose) (HPC) 113 % of control and 97 % of control | dose: 0.1 mg/kg/injection, schedule: Q01DX009 (ip), vehicle: Klucel (hydroxypropylcellulose) (HPC) 100 % of control and 110 % of control | dose: 0.2 mg/kg/injection, schedule: Q01DX009 (ip), vehicle: Klucel (hydroxypropylcellulose) (HPC) 103 % of control and 104 % of control | dose: 0.4 mg/kg/injection, schedule: Q01DX009 (ip), vehicle: Klucel (hydroxypropylcellulose) (HPC) 105 % of control and 107 % of control | dose: 0.8 mg/kg/injection, schedule: Q01DX009 (ip), vehicle: Klucel (hydroxypropylcellulose) (HPC) 119 % of control and 104 % of control

CCCCNC(=S)N/N=C/c1ccccn1
inactive: [10] 98 % of control | [11] 109 % of control

CC(=O)c1ccc[n+](CCc2c[nH]c3ccccc23)c1
inactive: dose: 12.5 mg/kg/injection, schedule: Q01DX009 (ip), vehicle: saline sonified 103 % of control | dose: 12.5 mg/kg/injection, schedule: Q04DX003 (ip), vehicle: saline with Tween-80 98 % of control | dose: 25.0 mg/kg/injection, schedule: Q01DX009 (ip), vehicle: saline sonified 100 % of control | dose: 25.0 mg/kg/injection, schedule: Q04DX003 (ip), vehicle: saline with Tween-80 104 % of control | dose: 50.0 mg/kg/injection, schedule: Q01DX009 (ip), vehicle: saline sonified 103 % of control | dose: 50.0 mg/kg/injection, schedule: Q04DX003 (ip), vehicle: saline with Tween-80 103 % of control

Cc1ccc(S(=O)(=O)OCC(O)C(O)C(O)C(O)CO[N+](=O)[O-])cc1 (stereo not given)
inactive: [12] 101 % of control | [13] 101 % of control | [14] 101 % of control

C(=C\c1nccc2c1[nH]c1ccccc12)/c1ccccc1
inactive: [1] 105 % of control | [2] 100 % of control | [3] 105 % of control

Cc1cccc(C)c1N1C(N)=NC(N)=NC1(C)C
inactive: [4] 101 % of control | [6] 93 % of control | [8] 93 % of control
